According to ChEMBL document CHEMBL1201862, “PubChem BioAssay data set” (2004):
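How tested: cells in 96-well plates exposed to compound for 48 hours at five concentrations. The concentration for 50% growth inhibition is given as GI50.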 The source made the active and inactive calls. No stated cut-off is given here; in the data, active = GI50 up to about 1.1 µM and inactive = higher.

Key:
Assay in all cases: inhibition of tumour cell growth, NCI panel, 48 h
HOP-18 = tested on: HOP-18
ACHN = tested on: ACHN
UACC-62 = tested on: UACC-62
SF-295 = tested on: SF-295
SR = tested on: SR
Malme-3M = tested on: Malme-3M
HOP-62 = tested on: HOP-62
NCI-H226 = tested on: NCI-H226
HCC 2998 = tested on: HCC 2998
RPMI-8226 = tested on: RPMI-8226
OVCAR-3 = tested on: OVCAR-3
COLO 205 = tested on: COLO 205
MOLT-4 = tested on: MOLT-4
NCI-H522 = tested on: NCI-H522
M19-MEL = tested on: M19-MEL
SK-MEL-5 = tested on: SK-MEL-5
HL-60 = tested on: HL-60
TK-10 = tested on: TK-10
SNB-78 = tested on: SNB-78
OVCAR-4 = tested on: OVCAR-4
KM12 = tested on: KM12
HCT-116 = tested on: HCT-116
SNB-75 = tested on: SNB-75
HT-29 = tested on: HT-29
RXF 393 = tested on: RXF 393
KM-20L2 = tested on: KM-20L2
UO-31 = tested on: UO-31
SNB-19 = tested on: SNB-19
K562 = tested on: K562
SK-MEL-2 = tested on: SK-MEL-2
OVCAR-5 = tested on: OVCAR-5
HCT-15 = tested on: HCT-15
DMS-114 = tested on: DMS-114
UACC-257 = tested on: UACC-257
CAKI-1 = tested on: CAKI-1
IGROV-1 = tested on: IGROV-1
SF-268 = tested on: SF-268
NCI-H23 = tested on: NCI-H23
SK-MEL-28 = tested on: SK-MEL-28
NCI-H460 = tested on: NCI-H460
U-251 = tested on: U-251
CCRF-CEM = tested on: CCRF-CEM
OVCAR-8 = tested on: OVCAR-8
SK-OV-3 = tested on: SK-OV-3
SN12C = tested on: SN12C
786-0 = tested on: 786-0
M14 = tested on: M14
LOX IMVI = tested on: LOX IMVI
DMS-273 = tested on: DMS-273
A549 = tested on: A549
LXFL 529 = tested on: LXFL 529
DLD-1 = tested on: DLD-1
SW-620 = tested on: SW-620
EKVX = tested on: EKVX

Structure (SMILES): CCOC(=O)C1(C#N)C(c2ccccc2)CC(O)(c2ccc(OC)cc2)C(C(=O)c2ccc(OC)cc2)C1c1ccccc1 (centres undefined)
- GI50 (HOP-18): 15.6 µM (inactive)
- GI50 (ACHN): > 100 µM (inactive)
- GI50 (UACC-62): > 100 µM (inactive)
- GI50 (SF-295): > 100 µM (inactive)
- GI50 (SR): > 100 µM (inactive)
- GI50 (Malme-3M): > 100 µM (inactive)
- GI50 (HOP-62): > 100 µM (inactive)
- GI50 (NCI-H226): > 100 µM (inactive)
- GI50 (HCC 2998): > 100 µM (inactive)
- GI50 (RPMI-8226): > 100 µM (inactive)
- GI50 (OVCAR-3): > 100 µM (inactive)
- GI50 (COLO 205): > 100 µM (inactive)
- GI50 (MOLT-4): > 100 µM (inactive)
- GI50 (NCI-H522): > 100 µM (inactive)
- GI50 (M19-MEL): > 100 µM (inactive)
- GI50 (SK-MEL-5): > 100 µM (inactive)
- GI50 (HL-60): > 100 µM (inactive)
- GI50 (TK-10): > 100 µM (inactive)
- GI50 (SNB-78): > 100 µM (inactive)
- GI50 (OVCAR-4): > 100 µM (inactive)
- GI50 (KM12): > 100 µM (inactive)
- GI50 (HCT-116): > 100 µM (inactive)
- GI50 (SNB-75): 27.7 µM (inactive)
- GI50 (HT-29): > 100 µM (inactive)
- GI50 (RXF 393): > 100 µM (inactive)
- GI50 (KM-20L2): > 100 µM (inactive)
- GI50 (UO-31): 74.6 µM (inactive)
- GI50 (SNB-19): 32.4 µM (inactive)
- GI50 (K562): > 100 µM (inactive)
- GI50 (SK-MEL-2): > 100 µM (inactive)
- GI50 (OVCAR-5): > 100 µM (inactive)
- GI50 (HCT-15): > 100 µM
- GI50 (DMS-114): > 100 µM (inactive)
- GI50 (UACC-257): > 100 µM (inactive)
- GI50 (CAKI-1): 98.2 µM (inactive)
- GI50 (IGROV-1): > 100 µM (inactive)
- GI50 (SF-268): > 100 µM (inactive)
- GI50 (NCI-H23): > 100 µM (inactive)
- GI50 (SK-MEL-28): > 100 µM (inactive)
- GI50 (NCI-H460): > 100 µM (inactive)
- GI50 (U-251): > 100 µM (inactive)
- GI50 (CCRF-CEM): > 100 µM (inactive)
- GI50 (OVCAR-8): > 100 µM (inactive)
- GI50 (SK-OV-3): > 100 µM (inactive)
- GI50 (SN12C): > 100 µM (inactive)
- GI50 (786-0): > 100 µM (inactive)
- GI50 (M14): > 100 µM (inactive)
- GI50 (LOX IMVI): > 100 µM (inactive)
- GI50 (DMS-273): > 100 µM (inactive)
- GI50 (A549): > 100 µM (inactive)
- GI50 (LXFL 529): > 100 µM (inactive)
- GI50 (DLD-1): > 100 µM (inactive)
- GI50 (SW-620): > 100 µM (inactive)
- GI50 (EKVX): > 100 µM (inactive)
